Activity calls are given as the source filed them. The rule behind the calls is not given here.
Tested on: rodent lifetime carcinogenesis bioassay, tumor incidence TD50
Assay: chronic cancer bioassays in animals – CPDB, compiled studies (AID 1745844)
Details: mouse, study length 104 weeks

In the case of ClCCl, the TD50 (strain B6C3F1, females, inhaled, site: any site (literature study), lesion: several types, types named in the paper, dosed 102 weeks) was 1020 mg/kg/day, the TD50 (strain B6C3F1, females, inhaled, site: liver + lung, lesion: hepatocellular adenoma + hepatocellular carcinoma + alveolar/bronchiolar adenoma + alveolar/bronchiolar carcinoma, dosed 102 weeks) was 817 mg/kg/day and the TD50 (strain B6C3F1, females, inhaled, site: liver, lesion: hepatocellular adenoma + hepatocellular carcinoma + neoplastic nodule, dosed 102 weeks) was 1430 mg/kg/day. It also gave a TD50 (strain B6C3F1, females, inhaled, site: liver, lesion: hepatocellular adenoma + hepatocellular carcinoma, dosed 102 weeks) of 1430 mg/kg/day, a TD50 (strain B6C3F1, females, inhaled, site: liver, lesion: hepatocellular adenoma, dosed 26 weeks) of 2570 mg/kg/day and a TD50 (strain B6C3F1, females, inhaled, site: liver, lesion: hepatocellular adenoma, dosed 52 weeks) of 6250 mg/kg/day. For the same molecule, the TD50 (strain B6C3F1, females, inhaled, site: liver, lesion: hepatocellular adenoma, dosed 78 weeks) was 2780 mg/kg/day, the TD50 (strain B6C3F1, females, inhaled, site: liver, lesion: hepatocellular adenoma, dosed 102 weeks) was 3170 mg/kg/day and the TD50 (strain B6C3F1, females, inhaled, site: liver, lesion: hepatocellular adenoma, dosed 104 weeks) was 4860 mg/kg/day. The TD50 (strain B6C3F1, females, inhaled, site: liver, lesion: hepatocellular carcinoma, dosed 26 weeks) was 6790 mg/kg/day, the TD50 (strain B6C3F1, females, inhaled, site: liver, lesion: hepatocellular carcinoma, dosed 52 weeks) was 4960 mg/kg/day and the TD50 (strain B6C3F1, females, inhaled, site: liver, lesion: hepatocellular carcinoma, dosed 78 weeks) was 4020 mg/kg/day. It also gave a TD50 (strain B6C3F1, females, inhaled, site: liver, lesion: hepatocellular carcinoma, dosed 102 weeks) of 1850 mg/kg/day, a TD50 (strain B6C3F1, females, inhaled, site: liver, lesion: hepatocellular carcinoma, dosed 104 weeks) of 2750 mg/kg/day and a TD50 (strain B6C3F1, females, inhaled, site: liver, lesion: several types, types named in the paper, dosed 26 weeks) of 1840 mg/kg/day. For the same molecule, the TD50 (strain B6C3F1, females, inhaled, site: liver, lesion: several types, types named in the paper, dosed 52 weeks) was 2850 mg/kg/day, the TD50 (strain B6C3F1, females, inhaled, site: liver, lesion: several types, types named in the paper, dosed 78 weeks) was 1730 mg/kg/day and the TD50 (strain B6C3F1, females, inhaled, site: liver, lesion: several types, types named in the paper, dosed 104 weeks) was 1740 mg/kg/day. For the same molecule, the TD50 (strain B6C3F1, females, inhaled, site: lung, lesion: adenoma, dosed 26 weeks) was 3400 mg/kg/day, the TD50 (strain B6C3F1, females, inhaled, site: lung, lesion: adenoma, dosed 52 weeks) was 3810 mg/kg/day and the TD50 (strain B6C3F1, females, inhaled, site: lung, lesion: adenoma, dosed 78 weeks) was 3590 mg/kg/day. It also gave a TD50 (strain B6C3F1, females, inhaled, site: lung, lesion: alveolar/bronchiolar adenoma + alveolar/bronchiolar carcinoma, dosed 102 weeks) of 917 mg/kg/day, a TD50 (strain B6C3F1, females, inhaled, site: lung, lesion: alveolar/bronchiolar adenoma, dosed 102 weeks) of 1420 mg/kg/day and a TD50 (strain B6C3F1, females, inhaled, site: lung, lesion: alveolar/bronchiolar adenoma, dosed 104 weeks) of 5020 mg/kg/day. For the same molecule, the TD50 (strain B6C3F1, females, inhaled, site: lung, lesion: alveolar/bronchiolar carcinoma, dosed 102 weeks) was 1690 mg/kg/day, the TD50 (strain B6C3F1, females, inhaled, site: lung, lesion: alveolar/bronchiolar carcinoma, dosed 104 weeks) was 2670 mg/kg/day and the TD50 (strain B6C3F1, females, inhaled, site: lung, lesion: carcinoma, dosed 26 weeks) was 1650 mg/kg/day. It also gave a TD50 (strain B6C3F1, females, inhaled, site: lung, lesion: carcinoma, dosed 52 weeks) of 952 mg/kg/day, a TD50 (strain B6C3F1, females, inhaled, site: lung, lesion: carcinoma, dosed 78 weeks) of 2830 mg/kg/day and a TD50 (strain B6C3F1, females, inhaled, site: lung, lesion: several types, types named in the paper, dosed 26 weeks) of 1280 mg/kg/day. The TD50 (strain B6C3F1, females, inhaled, site: lung, lesion: several types, types named in the paper, dosed 52 weeks) was 804 mg/kg/day, the TD50 (strain B6C3F1, females, inhaled, site: lung, lesion: several types, types named in the paper, dosed 78 weeks) was 1520 mg/kg/day and the TD50 (strain B6C3F1, females, inhaled, site: lung, lesion: several types, types named in the paper, dosed 104 weeks) was 1650 mg/kg/day. The TD50 (strain B6C3F1, females, inhaled, site: thyroid gland, lesion: follicular-cell adenoma, dosed 102 weeks) was 15800 mg/kg/day, the TD50 (strain B6C3F1, males, in drinking water, site: liver, lesion: hepatocellular adenoma, dosed 104 weeks) was 2900 mg/kg/day (inactive) and the TD50 (strain B6C3F1, males, in drinking water, site: liver, lesion: hepatocellular carcinoma, dosed 104 weeks) was 2350 mg/kg/day (inactive). The TD50 (strain B6C3F1, males, in drinking water, site: liver, lesion: several types, types named in the paper, dosed 104 weeks) was 1310 mg/kg/day (inactive), the carcinogen call (strain B6C3F1, males, in drinking water, site: thyroid gland, lesion: one or several types, types not named, dosed 104 weeks) was “negative (inactive)” and the TD50 (strain B6C3F1, males, inhaled, site: all sites, lesion: hemangioma + hemangiosarcoma, dosed 102 weeks) was 13200 mg/kg/day. The TD50 (strain B6C3F1, males, inhaled, site: all sites, lesion: hemangiosarcoma, dosed 102 weeks) was 12900 mg/kg/day, the TD50 (strain B6C3F1, males, inhaled, site: any site (literature study), lesion: several types, types named in the paper, dosed 102 weeks) was 1160 mg/kg/day and the TD50 (strain B6C3F1, males, inhaled, site: liver + lung, lesion: hepatocellular adenoma + hepatocellular carcinoma + alveolar/bronchiolar adenoma + alveolar/bronchiolar carcinoma, dosed 102 weeks) was 1090 mg/kg/day. For the same molecule, the TD50 (strain B6C3F1, males, inhaled, site: liver, lesion: hepatocellular adenoma + hepatocellular carcinoma + neoplastic nodule, dosed 102 weeks) was 1800 mg/kg/day, the TD50 (strain B6C3F1, males, inhaled, site: liver, lesion: hepatocellular adenoma + hepatocellular carcinoma, dosed 102 weeks) was 1800 mg/kg/day and the TD50 (strain B6C3F1, males, inhaled, site: liver, lesion: hepatocellular adenoma, dosed 102 weeks) was 3480 mg/kg/day. The TD50 (strain B6C3F1, males, inhaled, site: liver, lesion: hepatocellular carcinoma, dosed 102 weeks) was 2690 mg/kg/day, the TD50 (strain B6C3F1, males, inhaled, site: lung, lesion: alveolar/bronchiolar adenoma + alveolar/bronchiolar carcinoma, dosed 102 weeks) was 920 mg/kg/day and the TD50 (strain B6C3F1, males, inhaled, site: lung, lesion: alveolar/bronchiolar adenoma, dosed 102 weeks) was 1680 mg/kg/day. For the same molecule, the TD50 (strain B6C3F1, males, inhaled, site: lung, lesion: alveolar/bronchiolar carcinoma, dosed 102 weeks) was 1710 mg/kg/day, the TD50 (strain Swiss, females, by gavage, site: lung, lesion: adenoma, dosed 64 weeks) was 7050 mg/kg/day and the TD50 (strain Swiss, males, by gavage, site: lung, lesion: adenoma, dosed 64 weeks) was 916 mg/kg/day.

Reference: PubChem BioAssay AID1745844 (Carcinogenic Potency Database (CPDB), 2022)
